# Measurements published in US6737383B1, “Herbicidal oxadiazolidines” (priority 1999, dated 2004).
# Tests used:
# corn = assay: Test B pre/postemergence corn; assay type: in vivo, Zea mays
# In short: (§1)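 Test chemicals in a non-phytotoxic solvent mixture with surfactant were sprayed preemergence onto planted seeds and postemergence onto plants 2 to 18 cm tall (1- to 4-leaf stage). After twelve to sixteen days in a greenhouse, injury was visually rated against untreated controls from 0 (no effect) to 10 (complete control).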
# crabgrass = assay: Test B pre/postemergence crabgrass; assay type: in vivo, Digitaria sanguinalis
# In short: as §1
# velvetleaf = assay: Test B pre/postemergence velvetleaf; assay type: in vivo, Abutilon theophrasti; conditions: for Velvetleaf plant response rating (0 to 10 scale): 0 is no effect
# In short: as §1
# rice = assay: Test B flood test rice; assay type: in vivo, Oryza sativa
# In short: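 Read-out is a visual response score from 0 (no effect) to 10 (complete control), assigned by comparison with untreated controls. Treatment was applied at the 2-leaf stage, and plants stayed in the greenhouse for twelve to sixteen days before scoring.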
# [1] = Postemergence, Rate 62 g/ha, scale 0 to 10, 0 is no effect, 10 is complete control
# [2] = Postemergence, Rate 250 g/ha, scale 0 to 10, 0 no effect, 10 complete control
# [3] = Preemergence, Rate 62 g/ha, scale 0 to 10, 0 is no effect, 10 is complete control
# [4] = Preemergence, Rate 125 g/ha, scale 0 to 10 (0 no effect, 10 complete control)
# [5] = Preemergence, Rate 250 g/ha, scale of 0 to 10 where 0 is no effect and 10 is complete control
# [6] = Rate 125 g/ha, Postemergence, scale 0 to 10, 0 no effect, 10 complete control
# [7] = Rate 500 g/ha, Postemergence, scale 0 to 10, 0 no effect, 10 complete control
# [8] = Preemergence, Rate 500 g/ha, scale 0 (no effect) to 10 (complete control)
# [9] = Rate 125 g/ha, Postemergence section (flood test species), scale 0 to 10, 0 no effect, 10 complete control
# [10] = Rate 500 g/ha, listed under Postemergence (flood test species), scale 0 to 10, 0 no effect, 10 complete control
# [11] = flood test, listed under Postemergence, Rate 250 g/ha, scale 0 to 10, 0 no effect, 10 complete control
# [12] = Preemergence, Rate 62 g/ha, scale 0 to 10 (0 no effect, 10 complete control)
# [13] = Rate 250 g/ha, headed Pre-emergence (flood test species), scale 0 to 10 (0 no effect, 10 complete control)
# [14] = Rate 500 g/ha, headed Pre-emergence (flood test species), scale 0 to 10 (0 no effect, 10 complete control)
# [15] = Rate 1000 g/ha, Pre-emergence (as headed), scale 0 to 10
# [16] = Rate 2000 g/ha, Pre-emergence (as headed), scale 0 to 10
# [17] = Postemergence, Rate 125 g/ha, scale of 0 to 10 where 0 is no effect and 10 is complete control
# [18] = Preemergence, Rate 125 g/ha, 10 is complete control
# [19] = Rate 250 g/ha, Postemergence, scale 0 to 10, 0 is no effect, 10 is complete control
# [20] = Postemergence (flood test species), Rate 125 g/ha, scale of 0 to 10 where 0 is no effect and 10 is complete control
# [21] = Rate 250 g/ha, Postemergence (flood test), scale 0 to 10, 0 is no effect, 10 is complete control
# [22] = Preemergence, Rate 500 g/ha, scale 0 to 10 (0 no effect, 10 complete control)
# [23] = Rate 62 g/ha, Postemergence, scale of 0 to 10 where 0 is no effect and 10 is complete control
Structure (SMILES),Corn plant response rating (corn; [1]),Corn plant response rating (corn; [2]),"Plant response rating, Corn (corn; [4])","Plant response rating, Corn (corn; [5])",Corn plant response rating (corn; [7]),Crabgrass plant response rating (crabgrass; [1]),Crabgrass plant response rating (crabgrass; [2]),"Plant response rating, Crabgrass (crabgrass; [4])","Plant response rating, Crabgrass (crabgrass; [5])",Crabgrass plant response rating (crabgrass; [8]),Crabgrass plant response rating (crabgrass; [7]),Velvetleaf plant response rating (velvetleaf; [1]),"Plant response rating, Velvetleaf (velvetleaf; [5])",Velvetleaf plant response rating (velvetleaf; [8]),Velvetleaf plant response rating (velvetleaf; [7]),Rice plant response rating (rice; [1]),Rice plant response rating (rice; [10]),Corn plant response rating (corn; [12]),Crabgrass plant response rating (crabgrass; [12]),Velvetleaf plant response rating (velvetleaf; [12]),also measured
Cc1cccc(Cl)c1-n1c(=O)on(C(=O)N(c2ccc(Cl)cc2)C(C)C)c1=O [Compound 54],0,0,0,0,0,0,2,2,3,8,5,0,0,0,0,0,0,–,–,–,"Plant response rating, Corn (corn; [3]): 0; Corn plant response rating (corn; [6]): 0; Plant response rating, Crabgrass (crabgrass; [3]): 2; Crabgrass plant response rating (crabgrass; [6]): 0; Velvetleaf plant response rating (velvetleaf; [2]): 0; Plant response rating, Velvetleaf (velvetleaf; [3]): 0; Plant response rating, Velvetleaf (velvetleaf; [4]): 0; Velvetleaf plant response rating (velvetleaf; [6]): 0; Rice plant response rating (rice; [9]): 0; Rice plant response rating (rice; [11]): 0"
Cc1cc(C)c(-n2c(=O)on(C(=O)N(c3ccc(F)cc3)C(C)C)c2=O)c(C)c1 [Compound 60],0,0,0,0,0,0,1,1,1,1,2,0,0,0,0,0,0,0,0,0,"Corn plant response rating (corn; [8]): 0; Corn plant response rating (corn; [6]): 0; Crabgrass plant response rating (crabgrass; [6]): 0; Velvetleaf plant response rating (velvetleaf; [2]): 0; Plant response rating, Velvetleaf (velvetleaf; [4]): 0; Velvetleaf plant response rating (velvetleaf; [6]): 0; Rice plant response rating (rice; [9]): 0; Rice plant response rating (rice; [11]): 0"
COc1cccc(C)c1-n1c(=O)on(C(=O)N(c2ccc(F)cc2F)C(C)C)c1=O [Compound 74],0,0,0,0,0,0,4,2,5,8,7,2,0,0,4,0,0,0,2,0,"Corn plant response rating (corn; [8]): 0; Corn plant response rating (corn; [6]): 0; Crabgrass plant response rating (crabgrass; [6]): 2; Velvetleaf plant response rating (velvetleaf; [2]): 4; Plant response rating, Velvetleaf (velvetleaf; [4]): 0; Velvetleaf plant response rating (velvetleaf; [6]): 4; Rice plant response rating (rice; [9]): 0; Rice plant response rating (rice; [11]): 0"
CCN(CC)C(=O)n1oc(=O)n(Cc2cccs2)c1=O [Compound 77],0,0,0,0,0,0,0,2,2,3,0,0,0,3,0,0,0,0,0,0,"Corn plant response rating (corn; [8]): 0; Corn plant response rating (corn; [6]): 0; Crabgrass plant response rating (crabgrass; [6]): 0; Velvetleaf plant response rating (velvetleaf; [2]): 0; Plant response rating, Velvetleaf (velvetleaf; [4]): 0; Velvetleaf plant response rating (velvetleaf; [6]): 0; Rice plant response rating (rice; [9]): 0; Rice plant response rating (rice; [11]): 0"
Cc1ccccc1Cn1c(=O)on(C(=O)N(c2ccc(F)cc2F)C(C)C)c1=O [Compound 87],0,0,0,0,2,2,5,8,10,10,9,0,3,0,1,0,–,0,5,0,"Corn plant response rating (corn; [8]): 2; Corn plant response rating (corn; [6]): 0; Crabgrass plant response rating (crabgrass; [6]): 3; Velvetleaf plant response rating (velvetleaf; [2]): 0; Plant response rating, Velvetleaf (velvetleaf; [4]): 0; Velvetleaf plant response rating (velvetleaf; [6]): 0; Rice plant response rating (rice; Rate 31 g/ha, Postemergence section (flood test species), scale 0 to 10): 0; Rice plant response rating (rice; [9]): 0; Rice plant response rating (rice; [13]): 0; Plant response rating, Rice (rice; [14]): 0; Rice plant response rating (rice; [15]): 0; Rice plant response rating (rice; [16]): 0; Rice plant response rating (rice; [11]): 0"
Cc1nn(C)c(Cl)c1-n1c(=O)on(C(=O)N(c2ccc(F)cc2F)C(C)C)c1=O [Compound 96],0,0,0,0,0,1,3,4,7,9,8,0,0,0,0,0,2,0,1,0,"Corn plant response rating (corn; [17]): 0; Corn plant response rating (corn; [8]): 0; Crabgrass plant response rating (crabgrass; [17]): 3; Velvetleaf plant response rating (velvetleaf; [17]): 0; Velvetleaf plant response rating (0 to 10 scale) (velvetleaf; [18]): 0; Plant response rating, Velvetleaf (velvetleaf; [19]): 0; Rice plant response rating (rice; [20]): 0; Plant response rating, Rice (rice; [21]): 0"
Cc1nn(C)c(Cl)c1-n1c(=O)on(C(=O)N(c2ccccc2)C(C)C)c1=O [Compound 121],–,0,0,0,0,–,9,7,8,–,9,–,0,–,4,–,0,0,2,0,"Corn plant response rating (corn; [17]): 0; Corn plant response rating (corn; [22]): 0; Corn plant response rating (corn; [23]): 0; Crabgrass plant response rating (crabgrass; [17]): 6; Crabgrass plant response rating (crabgrass; [22]): 9; Crabgrass plant response rating (crabgrass; [23]): 4; Velvetleaf plant response rating (velvetleaf; [17]): 0; Velvetleaf plant response rating (0 to 10 scale) (velvetleaf; [18]): 0; Velvetleaf plant response rating (velvetleaf; [22]): 0; Velvetleaf plant response rating (velvetleaf; [23]): 0; Plant response rating, Velvetleaf (velvetleaf; [19]): 4; Rice plant response rating (rice; [20]): 0; Rice plant response rating (rice; Rate 62 g/ha, Postemergence section, flood test species, scale of 0 to 10 where 0 is no effect and 10 is complete control): 0; Plant response rating, Rice (rice; [21]): 0; Rice plant response rating (rice; [13]): 0; Plant response rating, Rice (rice; [14]): 0; Rice plant response rating (rice; [15]): 3; Rice plant response rating (rice; [16]): 5"
